Laboratory results as given in patent US7947834B2, “Substituted quinoxalines, their preparation and their therapeutical use as 11βHSD1 modulators” (Sanofi-Aventis, priority 2006, dated 2011).
Counter-ions that a name gives are not always drawn.

Assays:
11βHSD1 in the eyes = biological target: T1, 11βHSD1 in the eyes (Homo sapiens, UniProt P28845); conditions: healthy volunteers, after treating for seven days; cited from earlier work
T1 construct: host or cells: eyes of healthy volunteers (in vivo)
T1 sequence (P28845 whole entry): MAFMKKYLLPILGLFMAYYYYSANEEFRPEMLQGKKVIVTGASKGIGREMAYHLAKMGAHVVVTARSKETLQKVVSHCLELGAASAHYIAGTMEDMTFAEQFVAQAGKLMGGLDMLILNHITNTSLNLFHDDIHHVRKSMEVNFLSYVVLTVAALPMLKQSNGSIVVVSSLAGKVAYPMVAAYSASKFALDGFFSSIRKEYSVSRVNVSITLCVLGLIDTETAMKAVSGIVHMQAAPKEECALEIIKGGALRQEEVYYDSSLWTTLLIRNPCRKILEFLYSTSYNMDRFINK

[1] = biological target: T2, recombinant 11β-HSD1 protein (Homo sapiens, UniProt P28845); experiment: 11β-HSD1 SPA (Scintillation Proximity Assay) enzyme inhibition test, 384-well format; assay type: biochemical; conditions: 3H-cortisone and NADPH; cortisol formed measured by SPA; read-out: IC50 (concentration which inhibits 50% of the activity of 11β-HSD1)
T2 construct: made in house; host or cells: Saccharomyces cerevisiae
T2 sequence (P28845 whole entry, species assumed): as the sequence (P28845 whole entry) above
Text: The compounds according to the invention formed the subject of pharmacological tests which make it possible to determine their inhibiting effect on the 11β-HSD1 enzyme, which is an enzyme which is involved in the metabolism of lipids or the metabolism of glucose.
These tests consisted in measuring the in vitro inhibiting activity of the compounds of the invention by virtue of an SPA (Scintillation Proximity Assay) test in 384-well format. The recombinant 11β-HSD1 protein was produced in the yeast S. cerevisiae. The reaction was carried out by incubating the enzyme in the presence of ^3H-cortisone and of NADPH, in the absence or in the presence of an increasing concentration of inhibitor. SPA beads coupled to an antimouse antibody, which are preincubated with anticortisol antibody, made it possible to measure the amount of cortisol formed during the reaction.
The inhibiting activity with regard to the enzyme 11β-HSD1 is given by the concentration which inhibits 50% of the activity of 11β-HSD1 (IC50).

| Compound | melting point [°C] | IC50 [1] [nM] | reduction of the intraocular pressure (IOP) (11βHSD1 in the eyes) [%] |
| --- | --- | --- | --- |
| CN(C)C(=O)N1CCN(C(=O)N2CCC(c3cccnc3)C2)c2ccccc21.Cl (centres unmarked) | 181 |  |  |
| CCCCN1CCN(C(=O)N2CCC(c3cccnc3)C2)c2ccccc21.Cl (centres unmarked) | 191 |  |  |
| CC(=O)N1CCN(C(=O)N2CCC(c3cccnc3)C2)c2ccccc21.Cl (centres unmarked) | 201 |  |  |
| N#CC1(c2ccccc2)CCN(C(=O)N2CCCc3ccccc32)CC1 | 53 to 59 |  |  |
| Cl.O=C(N1CCC(c2cccnc2)C1)N1CCOc2ccccc21 (centres unmarked) | 60 to 90 |  |  |
| Cl.O=C(N1CCC(c2cccnc2)C1)N1CCOc2ccc(CO)cc21 (centres unmarked) | 273 |  |  |
| CC1(C)[C@@H](OC(=O)CCC(=O)O)CC[C@]2(C)[C@H]3C(=O)C=C4[C@@H]5C[C@@](C)(C(=O)O)CC[C@]5(C)CC[C@@]4(C)[C@]3(C)CC[C@@H]12 [carbenoxolone] |  |  | 18 |
| Cl.O=C(N1CCC(c2ccncc2)CC1)N1CCCc2ccccc21 [compound 4, 1-[(4-(Pyridin-4-yl)piperidin-1-yl)carbonyl]-1,2,3,4-tetrahydroquinoline Hydrochloride] | 198 | 115 |  |
| O=C(N1CCC2(C=Cc3ccccc32)CC1)N1CCCc2ccccc21 [compound 15, 1′-(3,4-Dihydroquinolin-1(2H)-ylcarbonyl)spiro[indene-1,4′-piperidine]] | 130 to 133 |  |  |
| O=C(N1CCC2(CCCc3ccccc32)CC1)N1CCCc2ccccc21 [compound 18] | 52 to 65 | 43 |  |
| O=C(N1CCC(c2nc(-c3c(Cl)cccc3Cl)no2)CC1)N1CCCc2ccccc21 [compound 25, 1-({4-[3-(2,6-Dichlorophenyl)-1,2,4-oxadiazol-5-yl]piperidin-1-yl}carbonyl)-1,2,3,4-tetrahydroquinoline] | 63 to 68 |  |  |

Further lines, with some results ahead:

| melting point [°C] | IC50 [1] [nM] | Compound | reduction of the intraocular pressure (IOP) (11βHSD1 in the eyes) [%] |
| --- | --- | --- | --- |
| 121 |  | CCCN1CCN(C(=O)N2CCC(c3cccnc3)C2)c2ccccc21 (centres unmarked) (as salt: HCl) [compound 101] |  |
|  | 39 | COc1cc(N2CCN(C(=O)N3CCC(c4cn[nH]c4)C3)c3ccccc32)ccc1C(=O)NC1CC1 (centres unmarked) [compound 78] |  |
|  | 90 | CCCN1CCN(C(=O)N2CCC(c3cccnc3)C2)c2ccccc21 (centres unmarked) [compound 101] |  |
| 239 |  | CS(=O)(=O)c1ccc(CN2CCN(C(=O)N3CCC(c4cn[nH]c4)C3)c3ccccc32)cc1 (centres unmarked) [compound 161, [4-(4-(Methanesulfonyl)benzyl)-3,4-dihydro-2H-quinoxalin-1-yl][3-(1H-pyrazol-4-yl)pyrrolidin-1-yl]methanone] |  |
| 174 | 57 | N#Cc1cccc(CN2CCN(C(=O)N3CCC(c4cn[nH]c4)C3)c3ccccc32)c1 (centres unmarked) [compound 162] |  |
| 251 |  | O=C(NN1CCCCC1)c1ccc(N2CCN(C(=O)N3CCC(c4cn[nH]c4)C3)c3ccccc32)cc1 (centres unmarked) [compound 172, N-(Piperidin-1-yl)-4-{4-[3-(1H-pyrazol-4-yl)pyrrolidine-1-carbonyl]-3,4-dihydro-2H-quinoxalin-1-yl}benzamide] |  |
| 100 |  | COc1cc(N2CCN(C(=O)N3CCC(c4cn[nH]c4)C3)c3ccccc32)ccc1C(=O)NC1CC1 (centres unmarked) [compound 178, N-Cyclopropyl-2-methoxy-4-{4-[3-(1H-pyrazol-4-yl)pyrrolidine-1-carbonyl]-3,4-dihydro-2H-quinoxalin-1-yl}benzamide] |  |
| 90 | 130 | NC(=O)c1ccc(N2CCN(C(=O)N3CCC(c4cn[nH]c4)C3)c3ccccc32)cn1 (centres unmarked) [compound 188] |  |
